Results: PMC4648803 (Purinergic Signalling, 2015)
Where “and” joins values, the source holds several entries; their conditions need not be identical. Equal values may be shown once.

Experiments:
hA1AR [1] = molecular target: T1, hA1AR (Homo sapiens, UniProt P30542); experiment: biochemical; settings: K i ± SEM, Radioligand binding, overall (one-state) value, newly acquired
T1 sequence (P30542 1-326): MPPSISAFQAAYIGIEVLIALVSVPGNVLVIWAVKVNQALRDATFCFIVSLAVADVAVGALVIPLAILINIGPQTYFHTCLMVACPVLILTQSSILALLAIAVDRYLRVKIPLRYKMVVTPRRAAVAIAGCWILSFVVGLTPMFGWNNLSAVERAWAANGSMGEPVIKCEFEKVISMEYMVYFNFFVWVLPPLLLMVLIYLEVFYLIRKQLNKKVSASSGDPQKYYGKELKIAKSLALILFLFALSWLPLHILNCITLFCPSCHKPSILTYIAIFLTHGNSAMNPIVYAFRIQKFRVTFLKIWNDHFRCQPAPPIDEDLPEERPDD
Experimental: (§1) The reference radioligand binding data were published before by our lab or were acquired as described before.
(§2) For the validation of MS binding assays, radioligand binding data that was published previously by our group was used. In the case that no in-house radioligand binding data was available, the concerning assays were performed following previously established protocols.

hA1AR [2] = molecular target: T1, hA1AR; experiment: biochemical; settings: K i ± SEM, MS binding, 6 nM DPCPX marker, overall (one-state) value
Experimental: (§3) Ligand displacement experiments were performed using nine concentrations of competing ligand.

hA1AR [3] = molecular target: T1, hA1AR; experiment: MS binding competition association assay (marker ligand DPCPX); parameters: expressed in transfected cells; host or cells: CHO cells stably expressing hA1AR (membrane preparation); gift from Prof; S. Hill, University of Nottingham; settings: for shape of competition association curve: 6 nM DPCPX, 250 nM competing ligand
Experimental: . […] Non-specific binding was determined as described under “MS binding displacement assays.”

hA1AR [4] = molecular target: T1, hA1AR; experiment: Radioligand binding competition association assay; parameters: expressed in transfected cells; host or cells: CHO cells stably expressing hA1AR (membrane preparation); gift from Prof; S. Hill, University of Nottingham; settings: newly acquired
Experimental: as §1, §2

hA1AR [5] = molecular target: T1, hA1AR; settings: saturation on CHO-hA1AR membranes, M/IS
Experimental: Dilutions were prepared with a HP D300 Digital Dispenser (Tecan Group, Männerdorf, Swiss) from DMSO stocks.

hA1AR [6] = molecular target: T1, hA1AR; settings: saturation on hA1AR; cited from earlier work
hA1AR [7] = molecular target: T1, hA1AR; parameters: expressed in transfected cells; host or cells: CHO cells stably expressing hA1AR (membrane preparation); gift from Prof; S. Hill, University of Nottingham; method as in PMID 23093571; settings: competition association, apparent value; cited from earlier work
hA2AAR [8] = molecular target: T2, hA2AAR (Homo sapiens, UniProt P29274); experiment: MS binding displacement assay (marker ligand ZM-241,385); settings: 3 nM ZM-241,385 marker, read-out: K i ± SEM, MS binding
T2 construct: expressed in transfected cells; host or cells: HEK293 cells stably expressing hA2AAR (membrane preparation); gift from Dr. J. Wang, Biogen/IDEC
Experimental: as §3

hA2AAR [9] = molecular target: T2, hA2AAR; experiment: Radioligand binding displacement assay; settings: newly acquired, read-out: K i ± SEM, Radioligand binding
Experimental: as §1, §2

hA2AAR [10] = molecular target: T2, hA2AAR; experiment: MS binding competition association assay (marker ligand ZM-241,385)
hA2AAR [11] = molecular target: T2, hA2AAR; experiment: Radioligand binding competition association assay; settings: newly acquired
Experimental: as §1, §2

[12] = competition association with 3 nM ZM-241,385, with internal standard
[13] = competition association with 3 nM ZM-241,385, without internal standard

T2 sequence (P29274 whole entry): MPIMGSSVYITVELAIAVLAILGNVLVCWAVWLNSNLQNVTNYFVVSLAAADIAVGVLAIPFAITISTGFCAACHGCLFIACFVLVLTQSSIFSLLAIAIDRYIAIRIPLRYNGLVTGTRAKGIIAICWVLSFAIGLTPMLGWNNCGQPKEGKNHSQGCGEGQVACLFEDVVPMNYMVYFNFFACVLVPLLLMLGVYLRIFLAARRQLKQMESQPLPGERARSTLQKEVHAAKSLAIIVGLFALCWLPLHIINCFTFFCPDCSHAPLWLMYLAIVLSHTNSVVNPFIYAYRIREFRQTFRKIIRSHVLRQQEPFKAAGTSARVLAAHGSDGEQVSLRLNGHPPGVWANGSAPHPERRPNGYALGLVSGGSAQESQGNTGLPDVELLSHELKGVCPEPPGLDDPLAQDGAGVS

## Cn1c(=O)c2[nH]c(C3CCCC3)nc2n(C)c1=O [8-CPT, 8-Cyclopentyltheophylline]
hA1AR [1]
  Ki: 31 ± 1 nM
hA1AR [2]
  Ki: 43 ± 11 nM
hA1AR [3]; hA1AR
  shape of competition association curve: typical for fast-dissociating ligands
hA1AR [3]; read-out: k off ± SEM, MS binding (M/IS) (converted)
  koff: 0.0233 s⁻¹
hA1AR [3]; read-out: k off ± SEM, MS binding (marker) (converted)
  koff: 0.02 s⁻¹
hA1AR [3]; read-out: k on ± SEM, MS binding (M/IS) (converted)
  kon: 833000 M⁻¹ s⁻¹
hA1AR [3]; read-out: k on ± SEM, MS binding (marker) (converted)
  kon: 500000 M⁻¹ s⁻¹
hA1AR [4]; read-out: k off ± SEM, Radioligand binding (converted)
  koff: 0.0183 s⁻¹
hA1AR [4]; read-out: k on ± SEM, Radioligand binding (converted)
  kon: 1e+06 M⁻¹ s⁻¹

## CCCn1c(=O)c2[nH]c(C3CCCC3)nc2n(CCC)c1=O [DPCPX, 1,3-dipropyl-8-cyclopentyl-xanthine]
hA1AR [5]
  B max, MS binding: 17.3 ± 0.3 pmol/mg protein
hA1AR [6]
  B max, Radioligand binding: 14 ± 1 pmol/mg protein and 14 ± 1 [29] pmol/mg protein

## CCCn1c(=O)c2[nH]c(C3CCCC3)nc2n(CCCOC(=O)c2ccc(S(=O)(=O)F)cc2)c1=O [FSCPX]
hA1AR [3]; hA1AR
  shape of competition association curve: typical for slowly dissociating ligands
hA1AR [3]; hA1AR, 250 nM FSCPX, after 120 min
  displacement of the marker ligand DPCPX: completely
hA1AR [3]; hA1AR, competition association with 6 nM DPCPX, with internal standard, apparent value for covalently binding FSCPX
  k on ± SEM, MS binding (M/IS): 0.7 ± 0.2 × 10^6 M^−1 min^−1
hA1AR [3]; hA1AR, competition association with 6 nM DPCPX, without internal standard, apparent value for FSCPX
  k on ± SEM, MS binding (marker): 0.7 ± 0.2 × 10^6 M^−1 min^−1
hA1AR [7]
  k on ± SEM, Radioligand binding: 3.7 ± 1.0 × 10^6 [29] M^−1 min^−1

## C#CCn1c(=O)c2c(nc(C=Cc3cccc(OC)c3)n2C)n(CCCO)c1=O [MSX-2, 3-(3-Hydroxypropyl)-7-methyl-1-propargyl-8-(m-methoxystryryl)xanthine]
hA2AAR [8]
  Ki: 9 ± 0.3 nM
hA2AAR [9]
  Ki: 5.7 ± 0.1 nM
hA2AAR [10]; 3 nM ZM-241,385, 90 nM MSX-2 or 15 nM LUF6632
  shape of competition association curve: typical for fast-dissociating ligands
hA2AAR [10]; [12]
  k off ± SEM, MS binding (M/IS): 0.027 ± 0.005 min⁻¹
  k on ± SEM, MS binding (M/IS): 5.4 ± 0.6 × 10^6 M^−1 min^-1
hA2AAR [10]; [13]
  k off ± SEM, MS binding (marker): 0.063 ± 0.022 min⁻¹
  k on ± SEM, MS binding (marker): 9.3 ± 1.3 × 10^6 M^−1 min^-1
hA2AAR [11]
  k off ± SEM, Radioligand binding: 0.026 ± 0.004 min⁻¹
  k on ± SEM, Radioligand binding: 2.4 ± 0.2 × 10^6 M^−1 min^-1
